Measured values: article PMC4823954, “From fighting depression to conquering tumors: a novel tricyclic thiazepine compound as a tubulin polymerization inhibitor” (Cell Death & Disease, 2016)

Tests used:
Experiment in all cases: KINOMEscan
Assay type in all cases: binding
Conditions in all cases: read-out: % Ctrl
EPHA8 = target: T1, EPHA8 (Homo sapiens, UniProt P29322)
T1 construct: purchased DiscoveRx KINOMEscan
Method in brief: (§1)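 Competition binding panel of 442 non-mutant kinases: test compound at 5 and 10 μM competed with an active-site-directed ligand for 1 h with shaking. Bound kinase was eluted with 0.5 μM ligand and quantified by qPCR; %Ctrl = (compound − positive control)/(DMSO − positive control) × 100, lower meaning tighter binding.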

[1] = target: T2, JAK2(JH1domain-catalytic) (Homo sapiens, UniProt O60674)
T2 construct: JAK2(JH1domain-catalytic); purchased DiscoveRx KINOMEscan
Method in brief: as §1

OSR1 = target: T3, OSR1 (Homo sapiens, UniProt O95747)
T3 construct: purchased DiscoveRx KINOMEscan
Method in brief: as §1

EPHA4 = target: T4, EPHA4 (Homo sapiens, UniProt P54764)
T4 construct: purchased DiscoveRx KINOMEscan
Method in brief: as §1

CSNK1G1 = target: T5, CSNK1G1 (Homo sapiens, UniProt Q9HCP0)
T5 construct: purchased DiscoveRx KINOMEscan
Method in brief: as §1

MST4 = target: T6, MST4 (Homo sapiens, UniProt Q9P289)
T6 construct: purchased DiscoveRx KINOMEscan
Method in brief: as §1

PFTK1 = target: T7, PFTK1 (Homo sapiens, UniProt O94921)
T7 construct: purchased DiscoveRx KINOMEscan
Method in brief: as §1

SYK = target: T8, SYK (Homo sapiens, UniProt P43405)
T8 construct: purchased DiscoveRx KINOMEscan
Method in brief: as §1

MTOR = target: T9, MTOR (Homo sapiens, UniProt P42345)
T9 construct: purchased DiscoveRx KINOMEscan
Method in brief: as §1

LCK = target: T10, LCK (Homo sapiens, UniProt P06239)
T10 construct: purchased DiscoveRx KINOMEscan
Method in brief: as §1

ERK5 = target: T11, ERK5 (Homo sapiens, UniProt Q13164)
T11 construct: purchased DiscoveRx KINOMEscan
Method in brief: as §1

DRAK2 = target: T12, DRAK2 (Homo sapiens, UniProt O94768)
T12 construct: purchased DiscoveRx KINOMEscan
Method in brief: as §1

FRK = target: T13, FRK (Homo sapiens, UniProt P42685)
T13 construct: purchased DiscoveRx KINOMEscan
Method in brief: as §1

QSK = target: T14, QSK (Homo sapiens, UniProt Q9Y2K2)
T14 construct: purchased DiscoveRx KINOMEscan
Method in brief: as §1

STK39 = target: T15, STK39 (Homo sapiens, UniProt Q9UEW8)
T15 construct: purchased DiscoveRx KINOMEscan
Method in brief: as §1

SGK3 = target: T16, SGK3 (Homo sapiens, UniProt Q96BR1)
T16 construct: purchased DiscoveRx KINOMEscan
Method in brief: as §1

CAMKK2 = target: T17, CAMKK2 (Homo sapiens, UniProt Q96RR4)
T17 construct: purchased DiscoveRx KINOMEscan
Method in brief: as §1

RIPK2 = target: T18, RIPK2 (Homo sapiens, UniProt O43353)
T18 construct: purchased DiscoveRx KINOMEscan
Method in brief: as §1

PIK3C2B = target: T19, PIK3C2B (Homo sapiens, UniProt O00750)
T19 construct: purchased DiscoveRx KINOMEscan
Method in brief: as §1

IRAK4 = target: T20, IRAK4 (Homo sapiens, UniProt Q9NWZ3)
T20 construct: purchased DiscoveRx KINOMEscan
Method in brief: as §1

[2] = target: T21, JAK1(JH1domain-catalytic) (Homo sapiens, UniProt P23458)
T21 construct: JAK1(JH1domain-catalytic); purchased DiscoveRx KINOMEscan
Method in brief: as §1

AKT1 = target: T22, AKT1 (Homo sapiens, UniProt P31749)
T22 construct: purchased DiscoveRx KINOMEscan
Method in brief: as §1

PAK6 = target: T23, PAK6 (Homo sapiens, UniProt Q9NQU5)
T23 construct: purchased DiscoveRx KINOMEscan
Method in brief: as §1

AURKA = target: T24, AURKA (Homo sapiens, UniProt O14965)
T24 construct: purchased DiscoveRx KINOMEscan
Method in brief: as §1

CAMK2D = target: T25, CAMK2D (Homo sapiens, UniProt Q13557)
T25 construct: purchased DiscoveRx KINOMEscan
Method in brief: as §1

MEK1 = target: T26, MEK1 (Homo sapiens, UniProt Q02750)
T26 construct: purchased DiscoveRx KINOMEscan
Method in brief: as §1

PYK2 = target: T27, PYK2 (Homo sapiens, UniProt Q14289)
T27 construct: purchased DiscoveRx KINOMEscan
Method in brief: as §1

PLK4 = target: T28, PLK4 (Homo sapiens, UniProt O00444)
T28 construct: purchased DiscoveRx KINOMEscan
Method in brief: as §1

MET = target: T29, MET (Homo sapiens, UniProt P08581)
T29 construct: purchased DiscoveRx KINOMEscan
Method in brief: as §1

NEK11 = target: T30, NEK11 (Homo sapiens, UniProt Q8NG66)
T30 construct: purchased DiscoveRx KINOMEscan
Method in brief: as §1

T30 sequence (Q8NG66 whole entry): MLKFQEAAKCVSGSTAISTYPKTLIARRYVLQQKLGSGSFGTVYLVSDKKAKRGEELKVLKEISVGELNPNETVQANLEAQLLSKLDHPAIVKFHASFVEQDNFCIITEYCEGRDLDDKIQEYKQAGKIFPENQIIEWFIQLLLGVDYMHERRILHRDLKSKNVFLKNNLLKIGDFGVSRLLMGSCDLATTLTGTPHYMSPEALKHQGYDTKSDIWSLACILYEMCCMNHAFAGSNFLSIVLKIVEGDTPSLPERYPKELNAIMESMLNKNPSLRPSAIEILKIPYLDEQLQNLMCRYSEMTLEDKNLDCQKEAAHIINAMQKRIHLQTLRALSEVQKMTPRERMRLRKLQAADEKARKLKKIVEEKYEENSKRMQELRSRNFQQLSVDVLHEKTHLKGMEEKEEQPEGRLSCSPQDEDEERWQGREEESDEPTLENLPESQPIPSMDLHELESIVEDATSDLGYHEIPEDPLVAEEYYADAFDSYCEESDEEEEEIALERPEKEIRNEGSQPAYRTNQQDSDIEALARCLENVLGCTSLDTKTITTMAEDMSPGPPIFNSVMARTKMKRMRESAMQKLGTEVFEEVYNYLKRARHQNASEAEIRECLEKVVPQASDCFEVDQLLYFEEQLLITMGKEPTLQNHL
T4 sequence (P54764 20-986): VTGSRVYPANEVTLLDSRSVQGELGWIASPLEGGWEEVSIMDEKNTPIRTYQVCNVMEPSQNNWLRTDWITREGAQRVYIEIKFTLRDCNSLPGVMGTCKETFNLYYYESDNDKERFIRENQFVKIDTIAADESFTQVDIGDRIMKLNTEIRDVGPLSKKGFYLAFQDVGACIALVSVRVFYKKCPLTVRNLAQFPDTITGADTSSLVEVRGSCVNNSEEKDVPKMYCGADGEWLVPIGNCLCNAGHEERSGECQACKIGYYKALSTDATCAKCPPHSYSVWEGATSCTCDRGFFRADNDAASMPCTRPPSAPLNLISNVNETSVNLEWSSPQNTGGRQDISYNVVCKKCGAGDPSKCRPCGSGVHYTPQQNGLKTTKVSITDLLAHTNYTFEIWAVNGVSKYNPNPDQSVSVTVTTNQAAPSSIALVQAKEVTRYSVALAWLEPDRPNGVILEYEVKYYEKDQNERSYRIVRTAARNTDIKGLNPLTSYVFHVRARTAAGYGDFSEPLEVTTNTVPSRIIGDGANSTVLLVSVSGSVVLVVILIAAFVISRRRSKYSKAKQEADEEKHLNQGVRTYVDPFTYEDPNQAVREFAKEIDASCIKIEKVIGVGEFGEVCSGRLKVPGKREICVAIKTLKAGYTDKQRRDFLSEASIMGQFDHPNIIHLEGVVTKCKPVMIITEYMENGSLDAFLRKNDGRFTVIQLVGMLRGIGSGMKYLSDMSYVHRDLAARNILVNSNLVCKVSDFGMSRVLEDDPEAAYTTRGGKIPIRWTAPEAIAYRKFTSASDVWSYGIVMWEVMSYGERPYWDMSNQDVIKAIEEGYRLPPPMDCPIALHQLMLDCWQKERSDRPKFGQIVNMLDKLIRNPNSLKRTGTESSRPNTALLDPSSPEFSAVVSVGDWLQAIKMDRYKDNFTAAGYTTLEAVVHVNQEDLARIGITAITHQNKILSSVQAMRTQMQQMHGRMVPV
T21 sequence (P23458 854-1154 limits assumed): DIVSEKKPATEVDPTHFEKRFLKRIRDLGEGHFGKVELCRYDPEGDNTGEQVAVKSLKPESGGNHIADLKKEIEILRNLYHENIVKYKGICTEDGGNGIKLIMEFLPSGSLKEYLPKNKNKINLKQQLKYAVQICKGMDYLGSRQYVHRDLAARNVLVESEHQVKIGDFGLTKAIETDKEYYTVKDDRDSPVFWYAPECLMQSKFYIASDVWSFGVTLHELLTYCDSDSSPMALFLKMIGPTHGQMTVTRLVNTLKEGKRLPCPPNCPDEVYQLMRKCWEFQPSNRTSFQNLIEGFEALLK
T13 sequence (P42685 whole entry): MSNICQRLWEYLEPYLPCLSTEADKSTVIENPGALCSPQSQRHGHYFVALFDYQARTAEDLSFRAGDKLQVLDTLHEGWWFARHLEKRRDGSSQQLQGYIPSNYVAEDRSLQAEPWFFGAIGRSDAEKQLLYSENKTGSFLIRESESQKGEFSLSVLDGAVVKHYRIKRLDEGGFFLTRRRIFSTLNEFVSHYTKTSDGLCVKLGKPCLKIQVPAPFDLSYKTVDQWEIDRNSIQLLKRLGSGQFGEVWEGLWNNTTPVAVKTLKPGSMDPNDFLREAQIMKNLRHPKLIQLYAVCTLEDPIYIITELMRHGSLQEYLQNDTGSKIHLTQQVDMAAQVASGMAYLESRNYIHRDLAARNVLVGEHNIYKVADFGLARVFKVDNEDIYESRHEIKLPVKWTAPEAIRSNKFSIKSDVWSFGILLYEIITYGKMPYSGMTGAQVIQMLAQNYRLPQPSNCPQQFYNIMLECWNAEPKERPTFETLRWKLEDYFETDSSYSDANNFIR
T3 sequence (O95747 whole entry): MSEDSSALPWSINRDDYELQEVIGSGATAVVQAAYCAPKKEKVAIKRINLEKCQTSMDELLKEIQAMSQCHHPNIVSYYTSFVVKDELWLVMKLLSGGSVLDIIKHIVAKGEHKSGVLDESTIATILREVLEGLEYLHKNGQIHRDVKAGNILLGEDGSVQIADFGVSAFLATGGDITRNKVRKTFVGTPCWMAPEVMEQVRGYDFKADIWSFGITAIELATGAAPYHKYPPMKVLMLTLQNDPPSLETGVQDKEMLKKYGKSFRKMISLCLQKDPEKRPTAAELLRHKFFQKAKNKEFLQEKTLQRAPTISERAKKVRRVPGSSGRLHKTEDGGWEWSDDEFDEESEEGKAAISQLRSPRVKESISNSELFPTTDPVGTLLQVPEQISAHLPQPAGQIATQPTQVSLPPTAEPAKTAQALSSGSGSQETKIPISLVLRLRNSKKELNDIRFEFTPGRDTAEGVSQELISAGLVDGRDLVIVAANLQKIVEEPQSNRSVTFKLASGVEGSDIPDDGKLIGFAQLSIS
T17 sequence (Q96RR4 whole entry): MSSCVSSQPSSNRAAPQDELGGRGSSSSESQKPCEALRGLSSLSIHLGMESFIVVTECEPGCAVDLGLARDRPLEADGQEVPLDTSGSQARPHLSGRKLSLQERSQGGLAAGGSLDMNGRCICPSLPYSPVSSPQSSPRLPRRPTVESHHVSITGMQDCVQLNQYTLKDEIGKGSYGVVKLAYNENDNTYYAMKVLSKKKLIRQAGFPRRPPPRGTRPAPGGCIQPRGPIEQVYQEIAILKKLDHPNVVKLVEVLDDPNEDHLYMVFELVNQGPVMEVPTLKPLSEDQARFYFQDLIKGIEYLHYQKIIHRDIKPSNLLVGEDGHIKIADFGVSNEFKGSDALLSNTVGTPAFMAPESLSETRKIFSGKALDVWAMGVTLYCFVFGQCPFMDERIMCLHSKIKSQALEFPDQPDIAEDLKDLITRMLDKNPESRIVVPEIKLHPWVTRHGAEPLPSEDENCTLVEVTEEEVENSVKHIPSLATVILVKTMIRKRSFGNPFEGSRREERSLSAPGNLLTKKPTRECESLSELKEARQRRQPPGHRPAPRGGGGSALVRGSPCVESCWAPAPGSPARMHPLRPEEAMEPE
T27 sequence (Q14289 whole entry): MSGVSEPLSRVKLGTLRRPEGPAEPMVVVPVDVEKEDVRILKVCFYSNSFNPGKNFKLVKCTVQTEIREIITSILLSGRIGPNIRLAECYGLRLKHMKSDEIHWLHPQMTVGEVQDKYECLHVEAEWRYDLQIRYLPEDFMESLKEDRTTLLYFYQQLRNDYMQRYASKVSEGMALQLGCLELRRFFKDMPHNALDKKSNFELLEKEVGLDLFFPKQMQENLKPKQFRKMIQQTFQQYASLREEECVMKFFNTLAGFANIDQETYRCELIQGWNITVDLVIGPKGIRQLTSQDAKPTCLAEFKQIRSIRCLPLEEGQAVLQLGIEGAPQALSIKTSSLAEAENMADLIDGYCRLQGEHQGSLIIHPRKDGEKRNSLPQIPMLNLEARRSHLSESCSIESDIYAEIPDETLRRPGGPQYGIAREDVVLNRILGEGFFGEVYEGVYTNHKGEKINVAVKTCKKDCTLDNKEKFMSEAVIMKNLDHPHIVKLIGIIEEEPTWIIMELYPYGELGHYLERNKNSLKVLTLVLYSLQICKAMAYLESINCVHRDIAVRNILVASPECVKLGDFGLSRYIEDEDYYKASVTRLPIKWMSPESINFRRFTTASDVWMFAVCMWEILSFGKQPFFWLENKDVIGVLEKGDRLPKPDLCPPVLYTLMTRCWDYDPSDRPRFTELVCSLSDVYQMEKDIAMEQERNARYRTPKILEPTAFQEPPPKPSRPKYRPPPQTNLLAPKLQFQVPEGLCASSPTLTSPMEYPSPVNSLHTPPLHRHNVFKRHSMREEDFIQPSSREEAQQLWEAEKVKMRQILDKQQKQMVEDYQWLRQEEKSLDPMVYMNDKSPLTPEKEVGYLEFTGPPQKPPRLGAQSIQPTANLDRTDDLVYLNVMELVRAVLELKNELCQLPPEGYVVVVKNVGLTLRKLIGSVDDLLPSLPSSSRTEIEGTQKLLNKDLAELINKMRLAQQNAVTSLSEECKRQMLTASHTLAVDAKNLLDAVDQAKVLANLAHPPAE
T16 sequence (Q96BR1 whole entry): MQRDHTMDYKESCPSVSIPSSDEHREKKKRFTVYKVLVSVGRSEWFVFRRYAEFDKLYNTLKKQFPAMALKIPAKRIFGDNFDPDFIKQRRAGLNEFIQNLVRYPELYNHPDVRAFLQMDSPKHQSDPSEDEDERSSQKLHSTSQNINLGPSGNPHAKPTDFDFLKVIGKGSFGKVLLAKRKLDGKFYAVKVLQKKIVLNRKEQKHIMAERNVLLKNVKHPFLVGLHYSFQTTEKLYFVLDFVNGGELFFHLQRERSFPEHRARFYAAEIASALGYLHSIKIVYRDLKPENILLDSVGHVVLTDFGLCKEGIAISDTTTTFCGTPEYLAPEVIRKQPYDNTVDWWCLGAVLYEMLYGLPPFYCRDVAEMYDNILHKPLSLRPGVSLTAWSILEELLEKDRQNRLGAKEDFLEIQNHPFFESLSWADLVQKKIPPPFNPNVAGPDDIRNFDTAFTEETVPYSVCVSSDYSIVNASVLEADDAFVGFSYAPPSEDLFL

## Cc1ccc(C2=Nc3cccnc3S(=O)(=O)c3ccccc32)cc1 [TBPT, 6-(p-tolyl)benzo[f] pyrido[2,3-b][1,4] thiazepine 11,11-dioxide]
EPHA8; 5 μM
  remaining binding at 5 µM: 96%
EPHA8; 10 μM
  remaining binding at 10 µM: 93%
[1]; 5 μM
  remaining binding at 5 µM: 84%
[1]; 10 μM
  remaining binding at 10 µM: 98%
OSR1; 5 μM
  remaining binding at 5 µM: 100%
OSR1; 10 μM
  remaining binding at 10 µM: 87%
EPHA4; 5 μM
  remaining binding at 5 µM: 100%
EPHA4; 10 μM
  remaining binding at 10 µM: 96%
CSNK1G1; 5 μM
  remaining binding at 5 µM: 100%
CSNK1G1; 10 μM
  remaining binding at 10 µM: 89%
MST4; 5 μM
  remaining binding at 5 µM: 63%
MST4; 10 μM
  remaining binding at 10 µM: 99%
PFTK1; 5 μM
  remaining binding at 5 µM: 100%
PFTK1; 10 μM
  remaining binding at 10 µM: 100%
SYK; 5 μM
  remaining binding at 5 µM: 100%
SYK; 10 μM
  remaining binding at 10 µM: 100%
MTOR; 5 μM
  remaining binding at 5 µM: 100%
MTOR; 10 μM
  remaining binding at 10 µM: 95%
LCK; 5 μM
  remaining binding at 5 µM: 97%
LCK; 10 μM
  remaining binding at 10 µM: 100%
ERK5; 5 μM
  remaining binding at 5 µM: 100%
ERK5; 10 μM
  remaining binding at 10 µM: 96%
DRAK2; 5 μM
  remaining binding at 5 µM: 100%
DRAK2; 10 μM
  remaining binding at 10 µM: 91%
FRK; 5 μM
  remaining binding at 5 µM: 100%
FRK; 10 μM
  remaining binding at 10 µM: 99%
QSK; 5 μM
  remaining binding at 5 µM: 76%
QSK; 10 μM
  remaining binding at 10 µM: 100%
STK39; 5 μM
  remaining binding at 5 µM: 100%
STK39; 10 μM
  remaining binding at 10 µM: 62%
SGK3; 5 μM
  remaining binding at 5 µM: 100%
SGK3; 10 μM
  remaining binding at 10 µM: 99%
CAMKK2; 5 μM
  remaining binding at 5 µM: 97%
CAMKK2; 10 μM
  remaining binding at 10 µM: 83%
RIPK2; 5 μM
  remaining binding at 5 µM: 92%
RIPK2; 10 μM
  remaining binding at 10 µM: 97%
PIK3C2B; 5 μM
  remaining binding at 5 µM: 100%
PIK3C2B; 10 μM
  remaining binding at 10 µM: 100%
IRAK4; 5 μM
  remaining binding at 5 µM: 100%
IRAK4; 10 μM
  remaining binding at 10 µM: 88%
[2]; 5 μM
  remaining binding at 5 µM: 95%
[2]; 10 μM
  remaining binding at 10 µM: 89%
AKT1; 5 μM
  remaining binding at 5 µM: 84%
AKT1; 10 μM
  remaining binding at 10 µM: 100%
PAK6; 5 μM
  remaining binding at 5 µM: 100%
PAK6; 10 μM
  remaining binding at 10 µM: 100%
AURKA; 5 μM
  remaining binding at 5 µM: 100%
AURKA; 10 μM
  remaining binding at 10 µM: 100%
CAMK2D; 5 μM
  remaining binding at 5 µM: 94%
CAMK2D; 10 μM
  remaining binding at 10 µM: 100%
MEK1; 5 μM
  remaining binding at 5 µM: 100%
MEK1; 10 μM
  remaining binding at 10 µM: 92%
PYK2; 5 μM
  remaining binding at 5 µM: 100%
PYK2; 10 μM
  remaining binding at 10 µM: 100%
PLK4; 5 μM
  remaining binding at 5 µM: 100%
PLK4; 10 μM
  remaining binding at 10 µM: 92%
MET; 5 μM
  remaining binding at 5 µM: 100%
MET; 10 μM
  remaining binding at 10 µM: 92%
NEK11; 5 μM
  remaining binding at 5 µM: 43%
NEK11; 10 μM
  remaining binding at 10 µM: 100%
